Experiment: Oral bioavailability in cynomolgus monkey
Format: ADME, organism-based, Macaca fascicularis
Conditions: in vivo

CC(C)[C@@H](CS(=O)(=O)C(C)C)N1C(=O)[C@@](C)(CC(=O)O)C[C@H](c2cccc(Cl)c2)[C@H]1c1ccc(Cl)cc1 [NAVTEMADLIN]
bioavailability: 51%

Reference: ChEMBL document CHEMBL3124826, “Discovery of AMG 232, a potent, selective, and orally bioavailable MDM2-p53 inhibitor in clinical development” (J Med Chem, 2014)
